From ChEMBL document CHEMBL3885881, “DrugMatrix”

Organism: Rattus norvegicus
Test: DrugMatrix - Regimen: Daily Repeat
Type: toxicity, organism-based, Sprague-Dawley
Design: regimen Daily Repeat, gender Male, age 6-8 weeks
Details: in vivo, po, route oral GAVAGE, vehicle 100 % WATER; for HEMATOCRIT / HEMOGLOBIN / LEUKOCYTE COUNT / MEAN CORPUSCULAR HEMOGLOBIN / MEAN CORPUSCULAR HEMOGLOBIN CONCENTRATION / MEAN CORPUSCULAR VOLUME: tissue Blood; for ALANINE AMINOTRANSFERASE / ALBUMIN / ALKALINE PHOSPHATASE / ASPARTATE AMINOTRANSFERASE / BLOOD UREA NITROGEN / CARBON DIOXIDE / CHLORIDE / CHOLESTEROL / CREATINE PHOSPHOKINASE / CREATININE / LACTATE DEHYDROGENASE / LIPASE / PHOSPHORUS / TOTAL BILIRUBIN / TOTAL PROTEIN / URIC ACID: tissue Plasma
[1] = 0 mg/kg, 72 h, dose level Control, time 3 day
[2] = 0 mg/kg, 120 h, dose level Control, time 5 day
[3] = 58 mg/kg, 72 h, dose level Low, time 3 day
[4] = 58 mg/kg, 120 h, dose level Low, time 5 day

## COc1cc2ncnc(Nc3ccc(F)c(Cl)c3)c2cc1OCCCN1CCOCC1 [GEFITINIB]
[1]
  HEMATOCRIT: 42.62%
  HEMOGLOBIN: 13.07 G/DL
  LEUKOCYTE COUNT: 13.95 x10E3/uL
  MEAN CORPUSCULAR HEMOGLOBIN: 21.47 pg
  MEAN CORPUSCULAR HEMOGLOBIN CONCENTRATION: 30.62 G/DL
  MEAN CORPUSCULAR VOLUME: 70.05 fL
  ALANINE AMINOTRANSFERASE: 47.67 u/L
  ALBUMIN: 3.8 G/DL
  ALKALINE PHOSPHATASE: 369 u/L
  ASPARTATE AMINOTRANSFERASE: 86.17 u/L
  BLOOD UREA NITROGEN: 16.33 mg/dL
  CARBON DIOXIDE: 37.33 mmol/L
  CHLORIDE: 104.83 MEQ/L
  CHOLESTEROL: 79.83 mg/dL
  CREATINE PHOSPHOKINASE: 392.83 u/L
  CREATININE: 0.68 mg/dL
  LACTATE DEHYDROGENASE: 426.17 u/L
  LIPASE: 11.67 u/L
  PHOSPHORUS: 11 mg/dL
  TOTAL BILIRUBIN: 0.55 mg/dL
  TOTAL PROTEIN: 6.32 G/DL
  URIC ACID: 0.0167 mg/dL
[2]
  HEMATOCRIT: 46.82%
  HEMOGLOBIN: 14.23 G/DL
  LEUKOCYTE COUNT: 13.43 x10E3/uL
  MEAN CORPUSCULAR HEMOGLOBIN: 20.55 pg
  MEAN CORPUSCULAR HEMOGLOBIN CONCENTRATION: 30.38 G/DL
  MEAN CORPUSCULAR VOLUME: 67.62 fL
  ALANINE AMINOTRANSFERASE: 44.67 u/L
  ALBUMIN: 3.8 G/DL
  ALKALINE PHOSPHATASE: 417.83 u/L
  ASPARTATE AMINOTRANSFERASE: 83 u/L
  BLOOD UREA NITROGEN: 15.33 mg/dL
  CARBON DIOXIDE: 38.83 mmol/L
  CHLORIDE: 98.17 MEQ/L
  CHOLESTEROL: 66.83 mg/dL
  CREATINE PHOSPHOKINASE: 383.17 u/L
  CREATININE: 0.72 mg/dL
  LACTATE DEHYDROGENASE: 519.67 u/L
  LIPASE: 4.83 u/L
  PHOSPHORUS: 11.07 mg/dL
  TOTAL BILIRUBIN: 0.55 mg/dL
  TOTAL PROTEIN: 6.3 G/DL
  URIC ACID: 0.0833 mg/dL
[3]
  HEMATOCRIT: 45.2%
  HEMOGLOBIN: 13.93 G/DL
  LEUKOCYTE COUNT: 13.22 x10E3/uL
  MEAN CORPUSCULAR HEMOGLOBIN: 21.17 pg
  MEAN CORPUSCULAR HEMOGLOBIN CONCENTRATION: 30.87 G/DL
  MEAN CORPUSCULAR VOLUME: 68.57 fL
  ALANINE AMINOTRANSFERASE: 47.67 u/L
  ALBUMIN: 3.63 G/DL
  ALKALINE PHOSPHATASE: 348 u/L
  ASPARTATE AMINOTRANSFERASE: 93.67 u/L
  BLOOD UREA NITROGEN: 18 mg/dL
  CARBON DIOXIDE: 36.33 mmol/L
  CHLORIDE: 108 MEQ/L
  CHOLESTEROL: 79.67 mg/dL
  CREATINE PHOSPHOKINASE: 307.67 u/L
  CREATININE: 0.7 mg/dL
  LACTATE DEHYDROGENASE: 373.67 u/L
  LIPASE: 10.67 u/L
  PHOSPHORUS: 10.37 mg/dL
  TOTAL BILIRUBIN: 0.37 mg/dL
  TOTAL PROTEIN: 5.97 G/DL
  URIC ACID: 0 mg/dL
[4]
  HEMATOCRIT: 46.33%
  HEMOGLOBIN: 14.27 G/DL
  LEUKOCYTE COUNT: 14.5 x10E3/uL
  MEAN CORPUSCULAR HEMOGLOBIN: 20.73 pg
  MEAN CORPUSCULAR HEMOGLOBIN CONCENTRATION: 30.83 G/DL
  MEAN CORPUSCULAR VOLUME: 67.23 fL
  ALANINE AMINOTRANSFERASE: 52.67 u/L
  ALBUMIN: 3.6 G/DL
  ALKALINE PHOSPHATASE: 361.67 u/L
  ASPARTATE AMINOTRANSFERASE: 94 u/L
  BLOOD UREA NITROGEN: 17.33 mg/dL
  CARBON DIOXIDE: 35.67 mmol/L
  CHLORIDE: 100.33 MEQ/L
  CHOLESTEROL: 85.33 mg/dL
  CREATINE PHOSPHOKINASE: 299.67 u/L
  CREATININE: 0.7 mg/dL
  LACTATE DEHYDROGENASE: 423.67 u/L
  LIPASE: 5.33 u/L
  PHOSPHORUS: 11.87 mg/dL
  TOTAL BILIRUBIN: 0.4 mg/dL
  TOTAL PROTEIN: 6.07 G/DL
  URIC ACID: 0.0333 mg/dL
